A value given as a limit tells only on which side of the number the result lay.

In one data set the target is Cytochrome P450 2C9 (Homo sapiens, UniProt P11712). The experiment in a line: Inhibition of CYP2C9 (unknown origin). Type of data set: ADME.
Data set [1] has as its target Sodium-dependent dopamine transporter (Homo sapiens) (UniProt Q01959). Put plainly: Inhibition of dopamine transporter (unknown origin) at 10 uM.
Another data set addresses Cytochrome P450 2C19 (Homo sapiens, UniProt P33261). The experiment in a line: Inhibition of CYP2C19 (unknown origin). The class given is ADME.
The next data set deals with Cytochrome P450 3A4 (Homo sapiens, UniProt P08684). Put plainly: Inhibition of CYP3A4 (unknown origin). The class given is ADME.
Data set [2] deals with Rattus norvegicus. Put plainly: Oral bioavailability in rat at 5 mg/kg. Type of data set: ADME, organism-based. The settings on record: in vivo.
Data set [3] deals with Rattus norvegicus. The experiment in a line: AUC in rat at 5 mg/kg, po. Type of data set: ADME, organism-based, Plasma. The settings on record: in vivo. On the set-up: dose 5 mg/kg, route oral.
For another data set, the target named is Cytochrome P450 2D6 (Homo sapiens, UniProt P10635). Put plainly: Inhibition of CYP2D6 (unknown origin). The class given is ADME.
Cytochrome P450 2D6, sequence (P10635 whole entry): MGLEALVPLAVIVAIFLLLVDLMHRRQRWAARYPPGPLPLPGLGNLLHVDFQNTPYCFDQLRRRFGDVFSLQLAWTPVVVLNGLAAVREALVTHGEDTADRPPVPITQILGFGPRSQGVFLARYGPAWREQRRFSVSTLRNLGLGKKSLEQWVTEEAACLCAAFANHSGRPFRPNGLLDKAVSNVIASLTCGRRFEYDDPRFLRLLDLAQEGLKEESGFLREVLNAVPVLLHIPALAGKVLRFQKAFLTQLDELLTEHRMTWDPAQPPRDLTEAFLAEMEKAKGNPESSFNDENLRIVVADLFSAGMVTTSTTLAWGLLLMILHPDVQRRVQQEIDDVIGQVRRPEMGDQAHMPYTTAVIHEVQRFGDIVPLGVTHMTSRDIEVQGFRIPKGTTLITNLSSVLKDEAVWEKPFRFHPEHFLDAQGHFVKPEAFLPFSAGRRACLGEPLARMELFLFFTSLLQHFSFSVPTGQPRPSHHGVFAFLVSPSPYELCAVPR
Data set [4] concerns the target Histamine H1 receptor (Homo sapiens) (UniProt P35367). The experiment in a line: Inhibition of human histamine H1 receptor at 10 uM.
Data set [5] can be described thus: Half life in mouse liver microsomes. Type of data set: ADME, Microsome. Background: Liver microsomes are vesicles of endoplasmic reticulum, rich in cytochrome P450 enzymes.
Data set [6] concerns the target Histamine H3 receptor (Rattus norvegicus, UniProt Q9QYN8). The experiment in a line: Displacement of [3H]NAMH from rat histamine H3 receptor transfected in CHO cells. The class given is cell-based.
Data set [7] concerns the target T1, Histamine H3 receptor (Homo sapiens, UniProt Q9Y5N1). Put plainly: Displacement of [3H]NAMH from human histamine H3 receptor transfected in CHO cells. The class given is cell-based. (In general: In a radioligand displacement assay an active substance lowers the binding of a labelled ligand.)
The nature of data set [8]: Ratio of drug uptake in brain to plasma in rat at 10 mg/kg, ip after 6 hrs. The settings on record: read-out: BPR. Set-up: dose 10 mg/kg, route intraperitoneal. Type of data set: ADME, organism-based.
Data set [9] deals with Histamine H4 receptor (Homo sapiens) (UniProt Q9H3N8). Put plainly: Inhibition of human histamine H4 receptor at 10 uM.
Histamine H4 receptor (Homo sapiens), sequence (Q9H3N8 whole entry): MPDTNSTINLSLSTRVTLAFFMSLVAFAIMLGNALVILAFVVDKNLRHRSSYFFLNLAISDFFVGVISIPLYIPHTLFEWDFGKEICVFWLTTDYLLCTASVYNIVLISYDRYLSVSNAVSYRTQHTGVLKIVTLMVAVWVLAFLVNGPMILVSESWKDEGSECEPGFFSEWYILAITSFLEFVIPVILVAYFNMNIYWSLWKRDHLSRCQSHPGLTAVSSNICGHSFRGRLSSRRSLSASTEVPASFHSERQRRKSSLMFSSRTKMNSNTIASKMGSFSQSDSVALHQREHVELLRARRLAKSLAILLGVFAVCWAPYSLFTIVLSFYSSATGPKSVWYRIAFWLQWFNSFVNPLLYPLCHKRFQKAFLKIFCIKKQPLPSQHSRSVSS
A short description of data set [10]: Half life in monkey liver microsomes. The class given is ADME, Macaca mulatta, Microsome. The conditions noted are these: rhesus monkey.
The target in data set [11] is Voltage-gated inwardly rectifying potassium channel KCNH2 (Homo sapiens, UniProt Q12809). Put plainly: Inhibition of human ERG channel by patch clamp technique.
Voltage-gated inwardly rectifying potassium channel KCNH2, sequence (Q12809 whole entry): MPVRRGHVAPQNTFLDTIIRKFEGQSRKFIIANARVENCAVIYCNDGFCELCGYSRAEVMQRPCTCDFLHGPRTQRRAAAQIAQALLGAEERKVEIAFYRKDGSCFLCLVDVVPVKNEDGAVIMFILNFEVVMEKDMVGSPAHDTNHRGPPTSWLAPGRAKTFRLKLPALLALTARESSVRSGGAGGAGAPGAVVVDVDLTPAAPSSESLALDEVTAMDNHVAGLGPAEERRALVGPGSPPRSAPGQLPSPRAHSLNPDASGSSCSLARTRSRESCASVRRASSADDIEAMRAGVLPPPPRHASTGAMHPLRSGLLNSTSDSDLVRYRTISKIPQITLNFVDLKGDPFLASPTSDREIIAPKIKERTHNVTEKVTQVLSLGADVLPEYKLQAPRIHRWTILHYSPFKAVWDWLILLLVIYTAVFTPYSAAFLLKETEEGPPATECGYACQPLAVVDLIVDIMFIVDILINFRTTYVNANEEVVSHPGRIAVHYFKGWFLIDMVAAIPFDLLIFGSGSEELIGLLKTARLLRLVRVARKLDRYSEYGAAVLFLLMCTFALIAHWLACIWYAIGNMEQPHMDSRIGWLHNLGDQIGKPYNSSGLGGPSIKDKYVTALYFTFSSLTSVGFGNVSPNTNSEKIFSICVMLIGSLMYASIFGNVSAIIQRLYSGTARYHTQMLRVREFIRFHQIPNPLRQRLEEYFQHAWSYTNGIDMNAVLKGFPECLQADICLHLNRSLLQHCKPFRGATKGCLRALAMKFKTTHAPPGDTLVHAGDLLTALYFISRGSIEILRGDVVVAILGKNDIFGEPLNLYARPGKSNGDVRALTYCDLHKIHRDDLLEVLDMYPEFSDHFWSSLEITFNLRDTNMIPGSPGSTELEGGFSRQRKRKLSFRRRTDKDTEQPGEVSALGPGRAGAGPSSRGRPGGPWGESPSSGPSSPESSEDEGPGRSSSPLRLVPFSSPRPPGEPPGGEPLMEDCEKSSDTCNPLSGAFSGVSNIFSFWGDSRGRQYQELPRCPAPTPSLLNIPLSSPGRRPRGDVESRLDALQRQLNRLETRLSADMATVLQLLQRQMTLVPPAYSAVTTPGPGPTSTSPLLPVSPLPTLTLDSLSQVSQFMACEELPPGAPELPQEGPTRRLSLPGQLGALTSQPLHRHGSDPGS
The nature of data set [12]: Cmax in rat at 5 mg/kg, po. On the set-up: dose 5 mg/kg, route oral. The class given is ADME, organism-based. The conditions noted are these: in vivo.
Data set [13] can be described thus: Half life in rat liver microsomes. The class given is ADME.
Data set [14] in a line: Volume of distribution at steady state in rat at 1 mg/kg, iv. Set-up: dose 1 mg/kg, route intravenous. The class given is ADME, organism-based. The conditions noted are these: in vivo, read-out: Vdss.
The nature of data set [15]: Half life in dog liver microsomes. Type of data set: ADME, Canis lupus familiaris.
Data set [16] can be described thus: Terminal half life in rat at 1 mg/kg, iv. Type of data set: ADME, organism-based. On the set-up: dose 1 mg/kg, route intravenous. The conditions noted are these: in vivo, read-out: beta t1/2 (converted).
The nature of data set [17]: Half life in human liver microsomes. Type of data set: ADME.
The target in the next data set is T2, Cytochrome P450 1A2 (Homo sapiens, UniProt P05177).
T2 sequence (P05177 whole entry): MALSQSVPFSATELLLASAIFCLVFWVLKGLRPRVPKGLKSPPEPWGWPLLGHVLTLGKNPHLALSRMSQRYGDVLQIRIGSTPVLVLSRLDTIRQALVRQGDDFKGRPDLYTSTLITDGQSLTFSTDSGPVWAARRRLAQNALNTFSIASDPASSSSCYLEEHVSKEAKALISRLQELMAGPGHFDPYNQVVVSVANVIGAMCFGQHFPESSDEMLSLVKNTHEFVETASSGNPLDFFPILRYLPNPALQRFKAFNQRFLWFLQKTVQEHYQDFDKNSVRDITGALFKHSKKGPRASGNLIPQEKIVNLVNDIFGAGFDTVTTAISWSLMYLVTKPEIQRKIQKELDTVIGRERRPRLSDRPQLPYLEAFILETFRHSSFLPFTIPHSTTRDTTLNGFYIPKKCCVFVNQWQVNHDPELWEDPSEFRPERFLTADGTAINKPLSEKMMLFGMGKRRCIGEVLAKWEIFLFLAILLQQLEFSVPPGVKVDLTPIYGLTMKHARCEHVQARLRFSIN
Put plainly: Inhibition of CYP1A2 (unknown origin). Type of data set: ADME.

For data set [18], the target named is Histamine H2 receptor (Homo sapiens) (UniProt P25021). The experiment in a line: Inhibition of human histamine H2 receptor at 10 uM.
Histamine H2 receptor (Homo sapiens), sequence (P25021 whole entry): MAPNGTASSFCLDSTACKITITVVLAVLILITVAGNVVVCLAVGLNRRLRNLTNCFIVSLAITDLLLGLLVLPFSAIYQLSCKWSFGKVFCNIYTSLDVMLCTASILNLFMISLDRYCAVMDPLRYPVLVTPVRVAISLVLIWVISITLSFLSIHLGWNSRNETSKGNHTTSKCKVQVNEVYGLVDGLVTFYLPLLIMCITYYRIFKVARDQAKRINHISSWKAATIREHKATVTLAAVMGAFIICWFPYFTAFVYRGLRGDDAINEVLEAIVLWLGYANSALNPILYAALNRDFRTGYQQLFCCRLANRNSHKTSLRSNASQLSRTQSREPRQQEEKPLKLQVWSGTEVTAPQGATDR
The target in data set [19] is T1, Histamine H3 receptor. Put plainly: Inverse agonist activity at human histamine H3 receptor by [35S]GTPgammaS binding assay. Type of data set: functional. In general terms: Binding of GTPγS marks nucleotide exchange on a G protein.
The subject of data set [20] is Liver microsome. The experiment in a line: Metabolic stability in human liver microsomes. The class given is ADME.
The test system of data set [21] is Liver microsome. Put plainly: Metabolic stability in rat liver microsomes. Type of data set: ADME.
Data set [22] can be described thus: Oral bioavailability in rat. The class given is ADME, organism-based. The conditions noted are these: in vivo.
The species named for data set [23] is Homo sapiens. The experiment in a line: Selectivity ratio for human histamine H3 receptor over human histamine H2 receptor.
Data set [24] relates to Liver microsome. The experiment in a line: Metabolic stability in dog liver microsomes. The class given is ADME, Canis lupus familiaris.
A short description of data set [25]: Metabolic stability in mouse liver microsomes. Type of data set: ADME, Microsome.
Data set [26] is filed under the species Homo sapiens. Put plainly: Selectivity ratio for human histamine H3 receptor over human histamine H4 receptor.
The species entered for data set [27] is Homo sapiens. Put plainly: Selectivity ratio for human histamine H3 receptor over human histamine H1 receptor.

T1 sequence (Q9Y5N1 whole entry): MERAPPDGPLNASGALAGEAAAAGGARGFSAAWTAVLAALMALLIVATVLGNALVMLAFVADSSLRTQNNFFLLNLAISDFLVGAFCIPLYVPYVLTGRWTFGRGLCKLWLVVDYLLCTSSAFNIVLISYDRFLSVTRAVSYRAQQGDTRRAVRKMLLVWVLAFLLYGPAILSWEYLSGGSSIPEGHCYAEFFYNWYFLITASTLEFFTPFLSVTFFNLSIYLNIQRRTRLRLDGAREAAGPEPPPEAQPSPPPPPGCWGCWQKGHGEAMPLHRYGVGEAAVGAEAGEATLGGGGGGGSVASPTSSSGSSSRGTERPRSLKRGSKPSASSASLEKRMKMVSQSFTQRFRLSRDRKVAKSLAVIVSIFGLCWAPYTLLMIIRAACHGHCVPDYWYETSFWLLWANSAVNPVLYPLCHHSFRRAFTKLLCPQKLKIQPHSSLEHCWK
Histamine H3 receptor (Rattus norvegicus, UniProt Q9QYN8), sequence (Q9QYN8 whole entry): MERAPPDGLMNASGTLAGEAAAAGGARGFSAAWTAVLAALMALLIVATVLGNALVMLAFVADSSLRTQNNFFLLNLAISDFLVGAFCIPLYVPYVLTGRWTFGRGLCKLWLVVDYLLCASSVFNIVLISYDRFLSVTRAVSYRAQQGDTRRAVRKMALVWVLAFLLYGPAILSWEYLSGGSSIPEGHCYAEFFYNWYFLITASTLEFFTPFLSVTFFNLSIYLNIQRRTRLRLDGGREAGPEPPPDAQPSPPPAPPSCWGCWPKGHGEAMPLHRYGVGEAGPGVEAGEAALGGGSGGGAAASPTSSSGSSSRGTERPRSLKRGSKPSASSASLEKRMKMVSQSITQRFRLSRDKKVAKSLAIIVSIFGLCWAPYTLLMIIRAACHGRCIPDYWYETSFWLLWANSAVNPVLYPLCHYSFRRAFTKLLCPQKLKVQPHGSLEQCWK
Sodium-dependent dopamine transporter (Homo sapiens), sequence (Q01959 whole entry): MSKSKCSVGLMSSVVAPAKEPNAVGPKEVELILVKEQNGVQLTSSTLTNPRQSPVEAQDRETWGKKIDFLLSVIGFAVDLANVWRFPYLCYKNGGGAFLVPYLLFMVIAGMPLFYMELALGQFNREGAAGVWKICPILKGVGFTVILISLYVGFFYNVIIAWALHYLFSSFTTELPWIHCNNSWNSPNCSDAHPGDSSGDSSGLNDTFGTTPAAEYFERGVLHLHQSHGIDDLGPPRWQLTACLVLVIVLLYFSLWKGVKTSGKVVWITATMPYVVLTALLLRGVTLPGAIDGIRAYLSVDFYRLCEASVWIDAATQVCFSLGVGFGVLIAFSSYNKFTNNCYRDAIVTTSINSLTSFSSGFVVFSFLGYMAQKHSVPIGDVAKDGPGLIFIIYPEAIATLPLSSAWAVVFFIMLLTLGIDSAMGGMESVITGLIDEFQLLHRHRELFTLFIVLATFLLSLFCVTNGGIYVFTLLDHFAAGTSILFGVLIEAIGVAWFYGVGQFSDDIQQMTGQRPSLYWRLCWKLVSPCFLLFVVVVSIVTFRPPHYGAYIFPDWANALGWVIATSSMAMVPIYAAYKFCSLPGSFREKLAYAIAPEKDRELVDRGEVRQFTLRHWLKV
Cytochrome P450 2C19, sequence (P33261 whole entry): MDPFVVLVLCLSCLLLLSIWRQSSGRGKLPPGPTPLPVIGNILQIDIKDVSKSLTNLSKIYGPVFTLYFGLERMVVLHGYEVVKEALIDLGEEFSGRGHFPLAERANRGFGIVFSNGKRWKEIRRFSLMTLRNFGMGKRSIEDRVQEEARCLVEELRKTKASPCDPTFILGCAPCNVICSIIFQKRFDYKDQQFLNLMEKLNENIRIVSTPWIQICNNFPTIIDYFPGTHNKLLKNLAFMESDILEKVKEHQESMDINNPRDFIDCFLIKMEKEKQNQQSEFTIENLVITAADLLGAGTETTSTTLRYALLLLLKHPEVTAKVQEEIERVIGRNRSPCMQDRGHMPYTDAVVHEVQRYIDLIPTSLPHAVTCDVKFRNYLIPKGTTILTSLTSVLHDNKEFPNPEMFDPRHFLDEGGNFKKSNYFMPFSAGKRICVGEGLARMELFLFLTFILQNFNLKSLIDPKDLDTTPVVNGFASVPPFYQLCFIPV
Cytochrome P450 2C9, sequence (P11712 whole entry): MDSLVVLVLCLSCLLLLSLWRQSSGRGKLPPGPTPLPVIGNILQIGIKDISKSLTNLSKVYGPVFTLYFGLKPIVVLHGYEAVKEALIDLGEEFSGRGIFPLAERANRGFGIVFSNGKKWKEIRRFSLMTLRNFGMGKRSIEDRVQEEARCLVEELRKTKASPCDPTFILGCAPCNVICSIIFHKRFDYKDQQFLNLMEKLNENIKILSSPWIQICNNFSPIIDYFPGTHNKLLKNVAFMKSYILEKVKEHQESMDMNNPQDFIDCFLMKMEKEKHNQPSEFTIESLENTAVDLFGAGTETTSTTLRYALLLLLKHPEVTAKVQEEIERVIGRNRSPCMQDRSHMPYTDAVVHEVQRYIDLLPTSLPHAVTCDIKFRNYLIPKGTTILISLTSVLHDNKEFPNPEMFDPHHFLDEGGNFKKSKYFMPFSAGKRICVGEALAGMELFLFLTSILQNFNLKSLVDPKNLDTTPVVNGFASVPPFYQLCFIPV

Broadly, the IC50 is the concentration that inhibits the measured activity by half. As a reminder, the inhibition is the change of the read-out against control, counted positive when it falls. In general, AUC refers to concentration integrated over time. As usually defined, the Ki is the equilibrium dissociation constant of an inhibitor or competing ligand from its target. As usually defined, the Cmax is the maximum level reached in the sampled fluid or tissue. As usually defined, the EC50 is the concentration giving half of the maximal effect. On to `O=C1NN=C(c2ccc(OC3CCN(C4CCC4)CC3)cc2)[C@@H]2C[C@H]12`, for which the IC50 at Cytochrome P450 2C9 is greater than 30 µM; on Cytochrome P450 2C19 it was greater than 30 µM; on Cytochrome P450 3A4 it was greater than 30 µM; on Cytochrome P450 2D6, greater than 30 µM; in data set [11] it was 6 µM; on Cytochrome P450 1A2, greater than 30 µM. In addition, the inhibition in data set [1] was 63%; in data set [4], less than 10%; in [9] it was less than 10%; in [18] it was less than 10%. This compound also came in with a F in the data set with Rattus norvegicus [2] of 66%. Also, the AUC with Rattus norvegicus [3] came to 5144 ng·h/mL. The half-life is greater than 40 min in [5]; greater than 40 min in data set [10]; greater than 40 min in data set [13]; greater than 40 min in data set [15]; 96 min in data set [16]; greater than 40 min in [17]. Further, the values for the Ki at Histamine H3 receptor [6] and on Histamine H3 receptor [7] were 0.012 µM and 0.0068 µM, respectively. For the same compound, the Kp at 6 h in data set [8] was 5. Besides, the peak concentration (Cmax) in data set [12] was determined as 649 ng/mL. Further, in data set [14], the Vd is 3 L/kg. The half-maximal effective concentration (EC50) at Histamine H3 receptor [19] worked out at 0.0005 µM.
The term bioavailability denotes the share of a dose that reaches the circulation, judged against a reference dose that is usually intravenous. Regarding `CN1N=C(c2ccc(OC3CCN(C4CCC4)CC3)cc2)C2CC2C1=O` (racemic), the Stability entry (in the data set with Liver microsome [20]; in the data set with Liver microsome [21]; with Liver microsome [24]; in data set [25]) was “Stable” throughout. Also, the bioavailability in data set [22] came to 6%. Moreover, the Ki at Histamine H3 receptor [6] turned out to be 0.0069 µM; at Histamine H3 receptor [7] it was 0.004 µM. Besides, the Selectivity ratio in the data set filed under Homo sapiens [23], in the data set listed under Homo sapiens [26] and in the data set filed under Homo sapiens [27] was greater than 1000 throughout.

The values above are taken from ChEMBL document CHEMBL3120141, “Discovery of (1R,6S)-5-[4-(1-cyclobutyl-piperidin-4-yloxy)-phenyl]-3,4-diaza-bicyclo[4.1.0]hept-4-en-2-one (R,S-4a): histamine H(3) receptor inverse agonist demonstrating potent cognitive enhancing and wake promoting activity” (Bioorg Med Chem Lett, 2014).
